The results in this text go back to PubChem BioAssay (NCI).

Test systems include T-47D breast; DU-145 prostate; PC-3 prostate; MDA-N; KM20L2 colon; SNB-78 CNS; LXFL 529 NSCLC.
Holding throughout (experiment): inhibition of tumour cell growth, NCI panel, 48 h

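96-well plates; 48 h exposure; 5 concentrations. Endpoints by linear interpolation between flanking doses. Not reached: highest tested concentration assigned. GI50 is the concentration that inhibits growth by half. Definition used: TGI = concentration required for complete inhibition of growth.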

As for `Cc1cc(Cl)ccc1NS(=O)(=O)c1ccc(-c2cnc(C3CC3)o2)cc1`, the GI50 was 0.369 µM with T-47D breast, 0.395 µM in the assay with DU-145 prostate and 0.254 µM in the assay on PC-3 prostate. Also, the TGI in the assay on T-47D breast was found to be 42.4 µM; in the assay on DU-145 prostate, 17.9 µM; in the assay with PC-3 prostate it was 13.8 µM.

`C/C=C1\C(=O)OC2CCN3CCC(COC(=O)C(C)(O)C(C)C1O)C23` (stereo unspecified): the TGI with T-47D breast, in the assay with MDA-N, with DU-145 prostate and in the assay with PC-3 prostate was greater than 100 µM in each case.

As to `C=[CH][Sn]([CH]=C)([O]c1cccc2cccnc12)[O]c1cccc2cccnc12`, the values for the GI50 with KM20L2 colon, in the assay with DU-145 prostate and in the assay on PC-3 prostate were 2260 nM, 7.29 µM and 3.85 µM, respectively. The figures for the TGI with KM20L2 colon, in the assay on DU-145 prostate and in the assay with PC-3 prostate were 4.99 µM, 23.2 µM and 29.7 µM, respectively.

With `CC1(C)OC2C(COS(N)(=O)=O)SC(n3cnc4cncnc43)C2O1` (stereo unspecified), the GI50 in the assay on T-47D breast, in the assay on DU-145 prostate and in the assay with PC-3 prostate was greater than 100 µM in each case. Further, the TGI with T-47D breast, in the assay on DU-145 prostate and in the assay with PC-3 prostate was greater than 100 µM in each case.

In the case of `O=c1c2ccccc2oc2ccc(OCCCCCCN3CCCCCC3)cc12`, the GI50 with T-47D breast was 2.26 µM; with DU-145 prostate it was 5.89 µM; in the assay with PC-3 prostate, 3.17 µM. In addition, the results for the TGI in the assay with T-47D breast, with DU-145 prostate and in the assay with PC-3 prostate were 8.52 µM, 19 µM and 13.2 µM, respectively.

As to `COc1cc([N+](=O)[O-])c2ncccc2c1[N+](=O)[O-]`, the GI50 is 3.1 µM with T-47D breast, 4.39 µM in the assay with DU-145 prostate and 4.18 µM with PC-3 prostate. Moreover, the TGI with T-47D breast is 11.7 µM; with DU-145 prostate, 15.8 µM; in the assay with PC-3 prostate it was 17 µM.

Turning to `CN1CCN(c2nc(-c3ccncc3)nc3sc4c(c23)CCCCCC4)CC1`, the GI50 is 13.5 µM in the assay with T-47D breast, 12.7 µM in the assay on DU-145 prostate and 4.71 µM with PC-3 prostate. Besides, the results for the TGI in the assay with T-47D breast, with DU-145 prostate and in the assay on PC-3 prostate were 29.3 µM, 26.4 µM and 18.2 µM, respectively.

For the compound `CCOP(=O)(Nc1ccc2oc(=O)c3ccccc3c2c1)OCC`, the TGI with T-47D breast, in the assay on MDA-N, with DU-145 prostate and in the assay with PC-3 prostate was greater than 100 µM in each case.

Take `CCC1CNC(=O)CC1CC(=O)OC` (stereo unspecified): the TGI in the assay with KM20L2 colon and with SNB-78 CNS was greater than 100 µM throughout.

Regarding `CC1CC2(C)CC(=O)C1C1C(=O)N(CCN3CCCCC3)C(=O)C12` (stereo unspecified), the GI50 in the assay with T-47D breast, in the assay with DU-145 prostate and with PC-3 prostate was greater than 100 µM in each case. Moreover, the TGI in the assay with T-47D breast, with DU-145 prostate and in the assay on PC-3 prostate was greater than 100 µM throughout.

For `N=C1C=C(N)C(=O)c2[nH]c(=O)ccc21`, the TGI turned out to be 4.88 µM with T-47D breast, 2.28 µM with MDA-N, 21.4 µM in the assay on DU-145 prostate and 2.8 µM in the assay with PC-3 prostate.

`COc1cc(/C=C(\C#N)C(N)=C(C#N)C#N)cc(O)c1O`: the TGI in the assay on LXFL 529 NSCLC, with T-47D breast, with KM20L2 colon, with MDA-N, in the assay with SNB-78 CNS and in the assay with DU-145 prostate was greater than 100 µM in each case. The compound further showed a TGI in the assay with PC-3 prostate greater than 100 µM.

`O=C1CN(/N=C/c2ccc(-c3ccc(F)cc3)o2)C(=O)N1`: the TGI in the assay with T-47D breast was greater than 100 µM; in the assay with MDA-N it was 38.6 µM; in the assay with DU-145 prostate, greater than 100 µM; with PC-3 prostate, greater than 100 µM.

As for `CC(NC(=O)c1ccccc1)(C(=O)O)C(=O)O`, the TGI with T-47D breast, with MDA-N, with DU-145 prostate and in the assay with PC-3 prostate was greater than 100 µM each time.

Consider `O=C(Nc1ccccc1C(=O)N/N=C(\c1ccccc1)c1ccccn1)c1ccc(F)cc1`, for which the GI50 with T-47D breast was 0.394 µM; with DU-145 prostate it was 0.351 µM; in the assay on PC-3 prostate, 0.792 µM. The TGI with T-47D breast, with DU-145 prostate and with PC-3 prostate was greater than 100 µM throughout.

In the case of `C#CCN(Cc1ccc2nc(N)[nH]c(=O)c2c1)c1ccc(C(=O)NC(CCC(=O)O)C(=O)O)cc1` (stereo unspecified), the TGI with T-47D breast, in the assay with MDA-N, with DU-145 prostate and in the assay with PC-3 prostate was greater than 100 µM each time.

For `CC(=O)Oc1ccc(/C=N/NC(N)=S)nc1`, the values for the GI50 in the assay with T-47D breast, with DU-145 prostate and with PC-3 prostate were 5.39 µM, 2.36 µM and 5.28 µM, respectively. In addition, the TGI is greater than 100 µM in the assay on T-47D breast, 8.38 µM in the assay with DU-145 prostate and greater than 100 µM in the assay on PC-3 prostate.

In the case of `Cc1nc(-n2nc(-c3ccccc3)cc2-c2ccccc2)sc1C(/C=C/c1ccc([N+](=O)[O-])cc1)=N/NC(=O)c1ccncc1`, the TGI with LXFL 529 NSCLC is 43.2 µM; with KM20L2 colon, greater than 100 µM; in the assay on SNB-78 CNS it was 61 µM.

For `O=C1C=CC2(C=C1)C[C@H](NC(=O)C(F)(F)F)C(=O)O2`, the TGI in the assay on LXFL 529 NSCLC was 69.1 µM; with KM20L2 colon, greater than 100 µM; in the assay on SNB-78 CNS, greater than 100 µM.

On to `Cc1cc(Cl)ccc1Nc1nc(C(F)(F)F)ccc1C(=O)N1CCN(c2cccc(Cl)c2)CC1`, for which the GI50 was greater than 100 µM with T-47D breast, greater than 100 µM in the assay with DU-145 prostate and 7.56 µM with PC-3 prostate. Also, the TGI with T-47D breast, in the assay on DU-145 prostate and in the assay on PC-3 prostate was greater than 100 µM each time.

Regarding `Oc1ccc(Cl)cc1Cc1cc(Cl)ccc1O`, the GI50 in the assay on T-47D breast is 2.18 µM; with DU-145 prostate, 3.81 µM; with PC-3 prostate, 3.17 µM. The TGI in the assay with T-47D breast amounted to 7.3 µM; in the assay with DU-145 prostate it was 13.8 µM; in the assay with PC-3 prostate it was 11.6 µM.

On to `COc1cnc2cc(C(=O)O)c3ccccc3c2c1`, for which the TGI in the assay with T-47D breast, with MDA-N, with DU-145 prostate and with PC-3 prostate was greater than 100 µM in each case.

On to `CCCCCCCCCCCCOP(N)(=O)OCCCCCCCCCCCC`, for which the TGI with LXFL 529 NSCLC and in the assay with SNB-78 CNS was greater than 100 µM in each case.
